Assay [1] deals with A. galli (intestinal roundworm of chicken) larval stage 3; O. dentatum (nodular worm of swine) larval stages 3 and 4. As to the kind of experiment: Activity against Ascaridia galli and Oesophagostomum dentatum larvae in vitro (minimum effective concentration). The assay is classed as cell-based.
In a further assay the test system is Haemonchus contortus. Briefly: Efficacy against Haemonchus contortus in jirds. The settings on record: 72 h, read-out: % Reduction in H. Type of assay: in vivo, jirds (Meriones unguiculatus). The protocol:
Anthelmintic effects of compounds of this invention were tested in vivo using Haemonchus contuortus in jirds (Meriones unguiculatus). The jirds were orally infected with approximately 750-3,000 third-stage larvae of Haemonchus contortus. Ten days after infection, the jirds in the treatment groups were treated once orally or subcutaneously at a dose of 2, 10, and/or 50 mg per kg bodyweight. Three days after treatment, the jirds were necropsied, and the larvae burden in the stomach is determined. The efficacy is defined as the reduction of the mean larvae count in the jirds of the treatment groups in comparison to the infected jirds in the untreated negative control group.

[2] abbreviates: read-out: MEC (minimum effective concentration) against one or more of the tested nematodes, in vitro, one or more of A. galli L3, O. dentatum L3, L4, threshold 1 μM.
Where [3] appears, read: read-out: MEC (minimum effective concentration) against one or more of the tested nematodes, in vitro, one or more of A. galli L3, O. dentatum L3, L4, threshold 7 μM.
[4] abbreviates: read-out: MEC (minimum effective concentration) against two or more of the tested nematodes, in vitro, two or more of A. galli L3, O. dentatum L3, L4, threshold 1 μM.

Structures are written as SMILES. Where two headings read alike, the source gives them in different places.

On to `CC(C)COc1ccc(N2CCN(CCC(=O)N3CCC(Nc4ccc([N+](=O)[O-])c(C(F)(F)F)c4)CC3)CC2)cc1` [Example 26, 3-[4-(4-isobutoxy-phenyl)-piperazin-1-yl]-1-[4-(4-nitro-3-trifluoromethyl-phenylamino)-piperidin-1-yl]-propan-1-one], for which the figures for the minimal effective concentration in assay [1] (setting [2]), in assay [1] (setting [3]) and in assay [1] (setting [4]) were < 1 µM, < 7 µM and < 1 µM, respectively. The values for the inhibition in vivo at 50 mg/kg in the assay on Haemonchus contortus (po) and with Haemonchus contortus (sc) were 64% and 91%, respectively.
As to `CS(=O)(=O)c1ccc(NC2CCN(C(=O)CCCN3CCN(c4ccc(C(F)(F)F)cc4)CC3)CC2)cc1C(F)(F)F` [Example 30, 1-[4-(4-methanesulfonyl-3-trifluoromethyl-phenylamino)-piperidin-1-yl]-4-[4-(4-trifluoromethyl-phenyl)-piperazin-1-yl]-butan-1-one], the results for the minimal effective concentration in assay [1] (setting [2]), in assay [1] (setting [3]) and in assay [1] (setting [4]) were < 1 µM, < 7 µM and < 1 µM, respectively. Further, the inhibition in vivo at 50 mg/kg came out at 62% with Haemonchus contortus (po) and 69% with Haemonchus contortus (sc).
As for `O=C(CCCN1CCN(c2ccc(C(F)(F)F)cc2)CC1)N1CCC(Nc2ccc(S(=O)(=O)c3ccc(F)cc3)cc2)CC1` [Example 33, 1-{4-[4-(4-fluoro-benzenesulfonyl)-phenylamino]-piperidin-1-yl}-4-[4-(4-trifluoromethyl-phenyl)-piperazin-1-yl]-butan-1-one], the minimal effective concentration in assay [1] (setting [2]) was < 1 µM; in assay [1] (setting [3]) it was < 7 µM; in assay [1] (setting [4]), < 1 µM. Besides, the results for the inhibition in vivo at 50 mg/kg with Haemonchus contortus (po) and in the assay on Haemonchus contortus (sc) were 55% and 69%, respectively.
`CC(C)(C)c1ccc(N2CCN(CCC(=O)N3CCC(Nc4ccc([N+](=O)[O-])c(C(F)(F)F)c4)CC3)CC2)cc1` [Example 35, 3-[4-(4-tert-butyl-phenyl)-piperazin-1-yl]-1-[4-(4-nitro-3-trifluoromethyl-phenylamino)-piperidin-1-yl]-propan-1-one]: the values for the minimal effective concentration in assay [1] (setting [2]), in assay [1] (setting [3]) and in assay [1] (setting [4]) were < 1 µM, < 7 µM and < 1 µM, respectively. The inhibition in vivo at 50 mg/kg in the assay with Haemonchus contortus (po) turned out to be 45%; in the assay with Haemonchus contortus (sc) it was 93%.
For `COc1cc(NC2CCN(C(=O)CCN3CCN(c4ccc(OCc5ccc(C(F)(F)F)cc5)cc4)CC3)CC2)ccc1[N+](=O)[O-]` [Example 40, 1-[4-(3-methoxy-4-nitro-phenylamino)-piperidin-1-yl]-3-{4-[4-(4-trifluoromethyl-benzyloxy)-phenyl]-piperazin-1-yl}-propan-1-one], the results for the minimal effective concentration in assay [1] (setting [2]), in assay [1] (setting [3]) and in assay [1] (setting [4]) were < 1 µM, < 7 µM and < 1 µM, respectively. The inhibition in vivo at 50 mg/kg was found to be 0% with Haemonchus contortus (po) and 74% in the assay with Haemonchus contortus (sc).
`O=C(CCCN1CCN(c2ccc(C(F)(F)F)cc2)CC1)N1CCC(Nc2ccc(C(F)(F)F)cn2)CC1` [Example 51, 4-[4-(4-trifluoromethyl-phenyl)-piperazin-1-yl]-1-[4-(5-trifluoromethyl-pyridin-2-ylamino)-piperidin-1-yl]-butan-1-one]: the minimal effective concentration in assay [1] (setting [2]) was < 1 µM; in assay [1] (setting [3]), < 7 µM; in assay [1] (setting [4]) it was < 1 µM. The figures for the inhibition in vivo at 50 mg/kg in the assay on Haemonchus contortus (po) and in the assay on Haemonchus contortus (sc) were 86% and 63%, respectively.
On to `O=C(CCCN1CCN(c2ccc(C(F)(F)F)cc2)CC1)N1CCC(Nc2ccc(OC(F)(F)F)cc2)CC1` [Example 54, 1-[4-(4-trifluoromethoxy-phenylamino)-piperidin-1-yl]-4-[4-(4-trifluoromethyl-phenyl)-piperazin-1-yl]-butan-1-one], for which the minimal effective concentration in assay [1] (setting [2]) is < 1 µM; in assay [1] (setting [3]), < 7 µM; in assay [1] (setting [4]) it was < 1 µM. In addition, the figures for the inhibition in vivo at 50 mg/kg in the assay on Haemonchus contortus (po) and in the assay with Haemonchus contortus (sc) were 95% and 58%, respectively.
